System: spontaneously contracting 3D cultured CMs
Assay: Calcium transient and spontaneous beating rate of dissociated, un-paced CMs in response to isoproterenol
Format: cell-based, human
Experimental: To immobilize cells for proper calcium transient acquisition, glass coverslips (21 mm, No. 1, Fisher Scientific) were coated with PDMS using a WS-400-6NPP spin coater (Laurell Technologies Corporation). Briefly, SLYGARD 184 silicone elastomer curing agent was mixed with SLYGARD 184 elastomer base (Dow Corning Corporation) at a ratio of 1:10, applied on the glass coverslips and evenly spin coated to obtain PDMS coated coverslips. These were dried at 60° C. for several hours, sterilized using 70% ethanol, and further dried under sterile conditions for at least 24 h. In order for successful single CM attachment, 1× fibronectin in ice cold ultrapure water was applied on PDMS coated coverslips and incubated for at least one hour at room temperature.
Day 14 2D monolayers and 3D tissues were dissociated using 0.25% trypsin (EDTA) at 37° C. for 5 and 8 min, respectively. Cells were singularized by pipetting, added to RPMI20 media49, and centrifuged for 5 min at 200 g. Singularized cells were resuspended in RPMI20+5 μM ROCK inhibitor and transferred onto fibronectin coated PDMS glass coverslips. Cells were incubated for 48 h to ensure uniform cell attachment. Media was then switched to RPMI/B27 and cells maintained for 3 to 5 days. CM calcium transient recordings were obtained using an IonOptix Myocyte Calcium and Contractility Recording System. Samples were incubated in 5 μM Fura-2AM dye (Molecular Probes) in 37° C. warm Tyrode's solution (1.8 mM CaCl2, 5 mM glucose, 5 mM HEPES, 1 mM MgCl2, 5.4 mM KCl, 135 mM NaCl, and 0.33 mM NaH2PO4, pH 7.4) for 30 mM CMs were paced at frequencies from 0.5 to 2.0 Hz (0.5 Hz increments) and stimulated at 30 V. Calcium transient duration at 50% and 80% time to baseline was recorded. In addition to responses to outside electrical stimuli, response to 0.5 μM isoproterenol was studied on un-paced CMs.

[1] = 0.5 μM isoproterenol, spontaneously contracting 3D cultured CMs, vs pre-isoproterenol, n=3, P<0.05

CC(C)NCC(O)c1ccc(O)c(O)c1 (stereo not shown) [isoproterenol]
calcium transient time to baseline 50% [1]: significantly shortened
calcium transient time to baseline 80% [1]: significantly shortened
spontaneous beating rate (post isoproterenol) (0.5 μM isoproterenol, un-paced day 14 3D cultured CMs, pre-isoproterenol 33 beats per min): 60 beats per min
spontaneous beating rate (change in words) (spontaneously contracting 3D cultured CMs, response to isoproterenol): increased
